The supplement of paper PMC10307832

Key:
Assay in all cases: relative viability (nuclei count vs DMSO), 5 days (fraction); higher = more cells survive
NCI-H2347 = system: NCI-H2347
Procedure, shortened: (§1)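 Cells from lung cancer lines were seeded into 1536-well plates and, one day later, dosed by pin tool. Treatments were either a single drug or a fixed dose of an anchor drug with five library-drug doses (not always all listed) in √10 steps. After 5 days, nuclei were stained in a one-step fixation (final 0.05% Triton X-100, 1% formaldehyde, 1 ug/ml Hoechst) and counted on 4× images, and relative viability is the treated-to-vehicle nuclei ratio, as the median of duplicate plates.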

LU99A = system: LU99A
Procedure, shortened: as §1

H3255 = system: H3255
Procedure, shortened: as §1

201T = system: 201T
Procedure, shortened: as §1

HCC-44 = system: HCC-44
Procedure, shortened: as §1

LK-2 = system: LK-2
Procedure, shortened: as §1

SW 1573 = system: SW 1573
Procedure, shortened: as §1

A-427 = system: A-427
Procedure, shortened: as §1

NCI-H23 = system: NCI-H23
Procedure, shortened: as §1

NCI-H460 = system: NCI-H460
Procedure, shortened: as §1

NCI-H650 = system: NCI-H650
Procedure, shortened: as §1

PC-3 [JPC-3] = system: PC-3 [JPC-3]
Procedure, shortened: as §1

COR-L23 = system: COR-L23
Procedure, shortened: as §1

SW 900 = system: SW 900
Procedure, shortened: as §1

NCI-H727 = system: NCI-H727
Procedure, shortened: as §1

NCI-H838 = system: NCI-H838
Procedure, shortened: as §1

NCI-H1793 = system: NCI-H1793
Procedure, shortened: as §1

PC-14 = system: PC-14
Procedure, shortened: as §1

NCI-H1944 = system: NCI-H1944
Procedure, shortened: as §1

LCLC-103H = system: LCLC-103H
Procedure, shortened: as §1

LCLC-97TM1 = system: LCLC-97TM1
Procedure, shortened: as §1

NCI-H1650 = system: NCI-H1650
Procedure, shortened: as §1

NC(=O)Nc1cc(-c2cccc(F)c2)sc1C(=O)N[C@H]1CCCNC1 [AZD7762] + CC(=O)Nc1cccc(-n2c(=O)n(C3CC3)c(=O)c3c(Nc4ccc(I)cc4F)n(C)c(=O)c(C)c32)c1 [Trametinib] (partner 0.02 µM)
relative viability (NCI-H2347; first compound 0.01 µM): 0.313 | relative viability (NCI-H2347; first compound 0.03162 µM): 0.279 | relative viability (NCI-H2347; first compound 0.1 µM): 0.281 | relative viability (NCI-H2347; first compound 0.3162 µM): 0.287 | relative viability (NCI-H2347; first compound 1 µM): 0.305 | relative viability (LU99A; first compound 0.01 µM): 0.595 | relative viability (LU99A; first compound 0.03162 µM): 0.522 | relative viability (LU99A; first compound 0.1 µM): 0.523 | relative viability (LU99A; first compound 0.3162 µM): 0.586 | relative viability (LU99A; first compound 1 µM): 0.43 | relative viability (H3255; first compound 0.01 µM): 0.71 | relative viability (H3255; first compound 0.03162 µM): 0.72 | relative viability (H3255; first compound 0.1 µM): 0.698 | relative viability (H3255; first compound 0.3162 µM): 0.618 | relative viability (H3255; first compound 1 µM): 0.682 | relative viability (201T; first compound 0.01 µM): 0.718 | relative viability (201T; first compound 0.03162 µM): 0.749 | relative viability (201T; first compound 0.1 µM): 0.763 | relative viability (201T; first compound 0.3162 µM): 0.724 | relative viability (201T; first compound 1 µM): 0.852 | relative viability (HCC-44; first compound 0.01 µM): 1.13 | relative viability (HCC-44; first compound 0.03162 µM): 1.04 | relative viability (HCC-44; first compound 0.1 µM): 1.12 | relative viability (HCC-44; first compound 0.3162 µM): 1.15 | relative viability (HCC-44; first compound 1 µM): 1.16 | relative viability (LK-2; first compound 0.01 µM): 0.794 | relative viability (LK-2; first compound 0.03162 µM): 0.552 | relative viability (LK-2; first compound 0.1 µM): 0.845 | relative viability (LK-2; first compound 0.3162 µM): 0.617 | relative viability (LK-2; first compound 1 µM): 0.562 | relative viability (SW 1573; first compound 0.01 µM): 0.741 | relative viability (SW 1573; first compound 0.03162 µM): 0.502 | relative viability (SW 1573; first compound 0.1 µM): 0.584 | relative viability (SW 1573; first compound 0.3162 µM): 0.583 | relative viability (SW 1573; first compound 1 µM): 0.342 | relative viability (A-427; first compound 0.01 µM): 0.82 | relative viability (A-427; first compound 0.03162 µM): 0.849 | relative viability (A-427; first compound 0.1 µM): 0.772 | relative viability (A-427; first compound 0.3162 µM): 0.655 | relative viability (A-427; first compound 1 µM): 0.331 | relative viability (NCI-H23; first compound 0.01 µM): 0.477 | relative viability (NCI-H23; first compound 0.03162 µM): 0.36 | relative viability (NCI-H23; first compound 0.1 µM): 0.421 | relative viability (NCI-H23; first compound 0.3162 µM): 0.392 | relative viability (NCI-H23; first compound 1 µM): 0.201 | relative viability (NCI-H460; first compound 0.01 µM): 0.327 | relative viability (NCI-H460; first compound 0.03162 µM): 0.179 | relative viability (NCI-H460; first compound 0.1 µM): 0.226 | relative viability (NCI-H460; first compound 0.3162 µM): 0.171 | relative viability (NCI-H460; first compound 1 µM): 0.0341 | relative viability (NCI-H650; first compound 0.01 µM): 0.984 | relative viability (NCI-H650; first compound 0.03162 µM): 1.08 | relative viability (NCI-H650; first compound 0.1 µM): 1.05 | relative viability (NCI-H650; first compound 0.3162 µM): 1.04 | relative viability (NCI-H650; first compound 1 µM): 0.756 | relative viability (PC-3 [JPC-3]; first compound 0.01 µM): 0.699 | relative viability (PC-3 [JPC-3]; first compound 0.03162 µM): 0.722 | relative viability (PC-3 [JPC-3]; first compound 0.1 µM): 0.69 | relative viability (PC-3 [JPC-3]; first compound 0.3162 µM): 0.662 | relative viability (PC-3 [JPC-3]; first compound 1 µM): 0.515 | relative viability (COR-L23; first compound 0.01 µM): 0.702 | relative viability (COR-L23; first compound 0.03162 µM): 0.623 | relative viability (COR-L23; first compound 0.1 µM): 0.518 | relative viability (COR-L23; first compound 0.3162 µM): 0.319 | relative viability (COR-L23; first compound 1 µM): 0.119 | relative viability (SW 900; first compound 0.01 µM): 0.799 | relative viability (SW 900; first compound 0.03162 µM): 0.794 | relative viability (SW 900; first compound 0.1 µM): 0.721 | relative viability (SW 900; first compound 0.3162 µM): 0.862 | relative viability (SW 900; first compound 1 µM): 0.495 | relative viability (NCI-H727; first compound 0.01 µM): 0.361 | relative viability (NCI-H727; first compound 0.03162 µM): 0.429 | relative viability (NCI-H727; first compound 0.1 µM): 0.358 | relative viability (NCI-H727; first compound 0.3162 µM): 0.366 | relative viability (NCI-H727; first compound 1 µM): 0.299 | relative viability (NCI-H838; first compound 0.01 µM): 0.632 | relative viability (NCI-H838; first compound 0.03162 µM): 0.513 | relative viability (NCI-H838; first compound 0.1 µM): 0.483 | relative viability (NCI-H838; first compound 0.3162 µM): 0.537 | relative viability (NCI-H838; first compound 1 µM): 0.305 | relative viability (NCI-H1793; first compound 0.01 µM): 0.469 | relative viability (NCI-H1793; first compound 0.03162 µM): 0.485 | relative viability (NCI-H1793; first compound 0.1 µM): 0.456 | relative viability (NCI-H1793; first compound 0.3162 µM): 0.446 | relative viability (NCI-H1793; first compound 1 µM): 0.381 | relative viability (PC-14; first compound 0.01 µM): 0.802 | relative viability (PC-14; first compound 0.03162 µM): 0.832 | relative viability (PC-14; first compound 0.1 µM): 0.659 | relative viability (PC-14; first compound 0.3162 µM): 0.236 | relative viability (PC-14; first compound 1 µM): 0.0675 | relative viability (NCI-H1944; first compound 0.01 µM): 0.443 | relative viability (NCI-H1944; first compound 0.03162 µM): 0.493 | relative viability (NCI-H1944; first compound 0.1 µM): 0.473 | relative viability (NCI-H1944; first compound 0.3162 µM): 0.523 | relative viability (NCI-H1944; first compound 1 µM): 0.496 | relative viability (LCLC-103H; first compound 0.01 µM): 0.683 | relative viability (LCLC-103H; first compound 0.03162 µM): 0.674 | relative viability (LCLC-103H; first compound 0.1 µM): 0.712 | relative viability (LCLC-103H; first compound 0.3162 µM): 0.574 | relative viability (LCLC-103H; first compound 1 µM): 0.712 | relative viability (LCLC-97TM1; first compound 0.01 µM): 0.199 | relative viability (LCLC-97TM1; first compound 0.03162 µM): 0.214 | relative viability (LCLC-97TM1; first compound 0.1 µM): 0.185 | relative viability (LCLC-97TM1; first compound 0.3162 µM): 0.202 | relative viability (LCLC-97TM1; first compound 1 µM): 0.182 | relative viability (NCI-H1650; first compound 0.01 µM): 0.65 | relative viability (NCI-H1650; first compound 0.03162 µM): 0.659 | relative viability (NCI-H1650; first compound 0.1 µM): 0.631 | relative viability (NCI-H1650; first compound 0.3162 µM): 0.532 | relative viability (NCI-H1650; first compound 1 µM): 0.209
